Measured values: PubChem BioAssay AID248 (DTP/NCI, 2004)
Where “and” joins values, the source holds several entries; their conditions need not be identical. Equal values may be shown once. Toxic doses and inconclusive results are not listed. No stated cut-off is given here; in the data, active means T/C of 150% or more; inactive means T/C below 125%.

Tested on: L1210 leukemia ip in BDF1 mice, survival T/C
Assay: NCI In Vivo Anticancer Drug Screen. Data for tumor model L1210 Leukemia (intraperitoneal) in B6D2F1 (BDF1) mice
Details: endpoint: mean survival time, higher = longer survival
Procedure, shortened: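 Tumor cells were implanted, animals were treated, and survival was followed. The result divides the treated measurement by the vehicle-control measurement.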

[1] = dose: 50.0 mg/kg/injection, schedule: Q01DX009 (ip), vehicle: saline with Tween-80
[2] = dose: 100.0 mg/kg/injection, schedule: Q01DX001 (ip), vehicle: saline with Tween-80
[3] = dose: 100.0 mg/kg/injection, schedule: Q01DX009 (ip), vehicle: saline with Tween-80
[4] = dose: 100.0 mg/kg/injection, schedule: Q04DX002 (ip), vehicle: saline with Tween-80
[5] = dose: 100.0 mg/kg/injection, schedule: Q04DX003 (ip), vehicle: saline with Tween-80
[6] = dose: 200.0 mg/kg/injection, schedule: Q01DX001 (ip), vehicle: saline with Tween-80
[7] = dose: 200.0 mg/kg/injection, schedule: Q01DX009 (ip), vehicle: saline with Tween-80
[8] = dose: 200.0 mg/kg/injection, schedule: Q04DX002 (ip), vehicle: saline with Tween-80
[9] = dose: 200.0 mg/kg/injection, schedule: Q04DX003 (ip), vehicle: saline with Tween-80
[10] = dose: 400.0 mg/kg/injection, schedule: Q01DX001 (ip), vehicle: saline with Tween-80
[11] = dose: 400.0 mg/kg/injection, schedule: Q04DX002 (ip), vehicle: saline with Tween-80
[12] = dose: 400.0 mg/kg/injection, schedule: Q04DX003 (ip), vehicle: saline with Tween-80
[13] = dose: 100.0 mg/kg/injection, schedule: Q01DX009 (ip), vehicle: saline
[14] = dose: 200.0 mg/kg/injection, schedule: Q01DX009 (ip), vehicle: saline
[15] = dose: 400.0 mg/kg/injection, schedule: Q01DX009 (ip), vehicle: saline
[16] = dose: 1.56 mg/kg/injection, schedule: Q01DX009 (ip), vehicle: saline
[17] = dose: 3.12 mg/kg/injection, schedule: Q01DX009 (ip), vehicle: saline
[18] = dose: 100.0 mg/kg/injection, schedule: Q04DX002 (ip), vehicle: Klucel (hydroxypropylcellulose) (HPC)
[19] = dose: 200.0 mg/kg/injection, schedule: Q04DX002 (ip), vehicle: Klucel (hydroxypropylcellulose) (HPC)
[20] = dose: 400.0 mg/kg/injection, schedule: Q04DX002 (ip), vehicle: Klucel (hydroxypropylcellulose) (HPC)
[21] = dose: 100.0 mg/kg/injection, schedule: Q01DX001 (ip), vehicle: carboxymethylcellulose (CMC)
[22] = dose: 200.0 mg/kg/injection, schedule: Q01DX001 (ip), vehicle: carboxymethylcellulose (CMC)
[23] = dose: 400.0 mg/kg/injection, schedule: Q01DX009 (ip), vehicle: saline with Tween-80

Measured: T/C

BrCOCCCCOCBr
inactive: dose: 44.0 mg/kg/injection, schedule: Q01DX009 (ip), vehicle: saline with Tween-80 109 % of control | dose: 50.0 mg/kg/injection, schedule: Q01DX001 (ip), vehicle: saline with Tween-80 102 % of control | [1] 108 % of control | dose: 50.0 mg/kg/injection, schedule: Q04DX002 (ip), vehicle: saline with Tween-80 105 % of control | dose: 50.0 mg/kg/injection, schedule: Q04DX003 (ip), vehicle: saline with Tween-80 110 % of control | dose: 67.0 mg/kg/injection, schedule: Q01DX009 (ip), vehicle: saline with Tween-80 112 % of control | [2] 102 % of control | [3] 109 % of control | [4] 107 % of control | [5] 107 % of control | dose: 150.0 mg/kg/injection, schedule: Q01DX009 (ip), vehicle: saline with Tween-80 107 % of control | [6] 104 % of control | [7] 104 % of control | [8] 105 % of control | [9] 109 % of control | [10] 107 % of control | [11] 91 % of control | [12] 103 % of control

COc1ccc2c3c(ccc2c1)C(=O)C(C)(C#N)CC3 (stereo unspecified)
inactive: [13] 88 % of control | dose: 100.0 mg/kg/injection, schedule: Q04DX003 (ip), vehicle: saline 89 % of control | [14] 91 % of control | dose: 200.0 mg/kg/injection, schedule: Q04DX003 (ip), vehicle: saline 89 % of control | [15] 95 % of control | dose: 400.0 mg/kg/injection, schedule: Q04DX003 (ip), vehicle: saline 94 % of control

COc1cccc(N2C(=O)C=CC2=O)c1
inactive: dose: 1.56 mg/kg/injection, schedule: Q01DX009 (ip), vehicle: Klucel (hydroxypropylcellulose) (HPC) 97 % of control | dose: 3.12 mg/kg/injection, schedule: Q01DX009 (ip), vehicle: Klucel (hydroxypropylcellulose) (HPC) 97 % of control

NCc1cn(C2OC(CO)C(O)C2O)c2ncnc(N)c12 (stereo unspecified)
inactive: [16] 90 % of control | dose: 3.12 mg/kg/injection, schedule: Q01DX005 (ip), vehicle: saline 92 % of control | [17] 107 % of control | dose: 6.25 mg/kg/injection, schedule: Q01DX005 (ip), vehicle: saline 108 % of control

CC(=O)Nc1ccc(NC(=O)C2C3C=CC(C3)C2C(=O)O)cc1 (stereo unspecified)
inactive: [1] 101 % of control | [3] 107 % of control | [7] 93 % of control

C[N+](C)(CC(=O)Nc1ccc(Cl)c(C(F)(F)F)c1)CC(=O)c1ccc(Cl)c(Cl)c1
inactive: dose: 100.0 mg/kg/injection, schedule: Q04DX003 (ip), vehicle: saline sonified 97 % of control | dose: 200.0 mg/kg/injection, schedule: Q04DX003 (ip), vehicle: saline sonified 111 % of control | dose: 400.0 mg/kg/injection, schedule: Q04DX003 (ip), vehicle: saline sonified 100 % of control

O=c1ccnc(-c2ccccc2)[nH]1
inactive: [18] 119 % of control | [19] 119 % of control | [20] 114 % of control

O=C(O)CC(C(=O)O)C1C=CCC1 (stereo unspecified)
inactive: [13] 97 % of control | [14] 115 % of control | [15] 101 % of control

COc1ccc(-n2cccc2/C=N\O)cc1OC
inactive: [18] 89 % of control | [19] 100 % of control | [20] 96 % of control

CN(C)N=Nc1ccc(CCCC(=O)NN)cc1
inactive: dose: 18.0 mg/kg/injection, schedule: Q01DX009 (ip), vehicle: other 103 % of control | dose: 22.0 mg/kg/injection, schedule: Q01DX Z (ip), vehicle: carboxymethylcellulose (CMC) 114 % of control | dose: 28.0 mg/kg/injection, schedule: Q01DX009 (ip), vehicle: other 111 % of control | [21] 111 % of control | [22] 113 % of control

CCCC(C)(CO)COC(N)=O (stereo unspecified)
inactive: dose: 100.0 mg/kg/injection, schedule: Q01DX001 (ip), vehicle: saline 105 % of control | dose: 200.0 mg/kg/injection, schedule: Q01DX001 (ip), vehicle: saline 103 % of control | dose: 400.0 mg/kg/injection, schedule: Q01DX001 (ip), vehicle: saline 111 % of control

O=[N+]([O-])C=C1CCCCC1
inactive: [2] 101 % of control | [6] 109 % of control

O=C(Nc1ccc(Cl)cc1)Oc1ccc(Cl)cc1Cl
inactive: dose: 25.0 mg/kg/injection, schedule: Q01DX009 (ip), vehicle: DMSO 92 % of control | dose: 25.0 mg/kg/injection, schedule: Q04DX002 (ip), vehicle: DMSO 94 % of control | dose: 50.0 mg/kg/injection, schedule: Q01DX009 (ip), vehicle: DMSO 86 % of control | dose: 50.0 mg/kg/injection, schedule: Q04DX002 (ip), vehicle: DMSO 87 % of control | dose: 200.0 mg/kg/injection, schedule: Q04DX002 (ip), vehicle: DMSO 96 % of control

COc1ccc([N+](=O)[O-])cc1NC(=O)Cc1ccccc1
inactive: [3] 107 % of control | [7] 101 % of control | [23] 91 % of control

CCOP(=O)(Nc1ccc2c(c1)Cc1c-2cc(Br)c(NC(C)=O)c1Br)OCC
inactive: dose: 50.0 mg/kg/injection, schedule: Q01DX001 (ip), vehicle: carboxymethylcellulose (CMC) 97 % of control | [21] 94 % of control | [22] 105 % of control | dose: 400.0 mg/kg/injection, schedule: Q01DX001 (ip), vehicle: carboxymethylcellulose (CMC) 100 % of control

Clc1[nH]cnc1Br
inactive: [5] 107 % of control | [9] 93 % of control | [12] 104 % of control

Cc1cccc(OC(=O)Nc2ccc(C(=O)O)c(O)c2)c1
inactive: dose: 50.0 mg/kg/injection, schedule: Q04DX003 (ip), vehicle: gum acacia 96 % of control and 98 % of control | dose: 100.0 mg/kg/injection, schedule: Q01DX001 (ip), vehicle: gum acacia 104 % of control and 105 % of control | dose: 100.0 mg/kg/injection, schedule: Q01DX009 (ip), vehicle: gum acacia 97 % of control and 88 % of control | dose: 100.0 mg/kg/injection, schedule: Q04DX002 (ip), vehicle: gum acacia 94 % of control and 88 % of control | dose: 100.0 mg/kg/injection, schedule: Q04DX003 (ip), vehicle: gum acacia 101 % of control and 88 % of control | dose: 200.0 mg/kg/injection, schedule: Q01DX001 (ip), vehicle: gum acacia 100 % of control and 107 % of control | dose: 200.0 mg/kg/injection, schedule: Q01DX009 (ip), vehicle: gum acacia 98 % of control and 117 % of control | dose: 200.0 mg/kg/injection, schedule: Q04DX002 (ip), vehicle: gum acacia 95 % of control and 110 % of control | dose: 200.0 mg/kg/injection, schedule: Q04DX003 (ip), vehicle: gum acacia 98 % of control and 101 % of control

CN1CCCCC1CCC1c2ccccc2CCc2ccccc21 (stereo unspecified)
inactive: [16] 104 % of control | [17] 104 % of control | dose: 6.25 mg/kg/injection, schedule: Q01DX009 (ip), vehicle: saline 98 % of control and 99 % of control | dose: 12.5 mg/kg/injection, schedule: Q01DX009 (ip), vehicle: saline 94 % of control and 103 % of control | dose: 25.0 mg/kg/injection, schedule: Q01DX009 (ip), vehicle: saline 107 % of control and 116 % of control

O=C(Nc1ccccc1[N+](=O)[O-])OCCOc1ccccc1
inactive: [2] 98 % of control | [3] 103 % of control and 90 % of control | [4] 93 % of control and 95 % of control | [5] 97 % of control | [6] 91 % of control | [7] 100 % of control and 92 % of control | [8] 98 % of control and 100 % of control | [9] 103 % of control | [10] 93 % of control | [23] 93 % of control and 90 % of control | [11] 104 % of control and 92 % of control | [12] 105 % of control
